The values below come from US10328054B2, “Substituted pyrrolidines as mGluR5 antagonists” (Hua Medicine (Shanghai) Ltd., priority 2015, dated 2019).

Some results are limits rather than exact numbers.

This test concerns the target recombinant rat mGluR5 (Rattus norvegicus (Rat), UniProt P31424). As to the kind of experiment: Functional calcium flux assay (FLIPR). The class given is cell-based. The conditions noted are these: HEK293 cells stably expressing recombinant rat mGluR5; inhibition of glutamate-evoked [Ca2+]i increase, 15 min incubation of test compound. The protocol: For functional assays, HEK293 cells stably expressing recombinant rat mGluR5 were seeded in 384-well plates and dye loaded using Fluo-8. Cells were then washed to remove the un-incorporated dye. Antagonist evaluation was performed following a 15 min incubation of the test compound followed by the addition of submaximal concentration of glutamate. Intracellular calcium ([Ca^2+]i) measurements were performed using a fluorometric imaging plate reader (FLIPR, Molecular Devices). The glutamate-evoked increase in [Ca^2+]i in the presence of the test compounds was compared to the response to glutamate alone (the positive control). Antagonist inhibition curves were fitted with a 4-parameter logistic equation giving IC50 values, and Hill coefficients using an iterative nonlinear curve fitting algorithm.
The tables below provide IC50 data in this assay. In the activity column, A=IC50>1,000 and <5,000 nM; B=IC50>500 and <1,000 nM and C=IC50<500 nM.
On the technique in general: Calcium assays in cells follow changes in intracellular calcium, usually with a dye or a luminescent sensor.

Sequence of recombinant rat mGluR5 (P31424 21-1203): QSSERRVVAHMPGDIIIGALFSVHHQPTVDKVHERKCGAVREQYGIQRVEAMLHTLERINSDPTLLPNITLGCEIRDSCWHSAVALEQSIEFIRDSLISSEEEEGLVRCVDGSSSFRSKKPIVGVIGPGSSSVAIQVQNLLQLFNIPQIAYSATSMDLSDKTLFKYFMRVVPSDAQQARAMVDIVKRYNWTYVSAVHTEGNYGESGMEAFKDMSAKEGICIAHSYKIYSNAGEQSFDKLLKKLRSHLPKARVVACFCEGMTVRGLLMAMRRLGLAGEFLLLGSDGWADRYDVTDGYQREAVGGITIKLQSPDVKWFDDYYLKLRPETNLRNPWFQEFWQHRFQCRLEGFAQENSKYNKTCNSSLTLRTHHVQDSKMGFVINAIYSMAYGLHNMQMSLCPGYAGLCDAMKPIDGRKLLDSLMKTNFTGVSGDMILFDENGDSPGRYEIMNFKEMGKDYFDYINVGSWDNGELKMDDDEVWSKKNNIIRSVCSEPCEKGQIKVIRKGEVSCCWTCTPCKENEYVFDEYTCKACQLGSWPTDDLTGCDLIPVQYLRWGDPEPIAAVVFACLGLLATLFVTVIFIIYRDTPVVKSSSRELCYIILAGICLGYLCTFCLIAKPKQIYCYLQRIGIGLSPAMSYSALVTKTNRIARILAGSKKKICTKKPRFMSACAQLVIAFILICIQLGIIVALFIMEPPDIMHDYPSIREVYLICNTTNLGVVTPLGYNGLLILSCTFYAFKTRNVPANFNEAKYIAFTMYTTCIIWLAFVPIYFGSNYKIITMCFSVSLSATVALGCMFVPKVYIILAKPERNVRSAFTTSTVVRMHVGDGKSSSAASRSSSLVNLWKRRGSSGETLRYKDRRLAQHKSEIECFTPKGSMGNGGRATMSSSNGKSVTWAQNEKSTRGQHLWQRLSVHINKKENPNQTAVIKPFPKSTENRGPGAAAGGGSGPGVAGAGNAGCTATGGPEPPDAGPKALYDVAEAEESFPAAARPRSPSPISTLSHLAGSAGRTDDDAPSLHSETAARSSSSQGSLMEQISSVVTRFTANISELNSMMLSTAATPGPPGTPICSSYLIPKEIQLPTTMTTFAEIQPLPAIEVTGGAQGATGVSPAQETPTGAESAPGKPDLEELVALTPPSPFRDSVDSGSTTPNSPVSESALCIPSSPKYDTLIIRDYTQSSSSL

With `COc1cccc(C#CC23CC2CN(c2cc(F)cc(C#N)c2)C3)n1` (centres unmarked) [Example Compound 15, 3-fluoro-5-(1-((6-methoxypyridin-2-yl)ethynyl)-3-azabicyclo[3.1.0]hexan-3-yl) benzonitrile], the half-maximal inhibitory concentration (IC50) was below 500 nM.
Regarding `Cc1nc(C#CC23CC2CN(C(=O)c2cccc(Cl)c2)C3)cs1` (centres unmarked) [Example Compound 49, (3-chlorophenyl)-(1-((2-methylthiazol-4-yl)ethynyl)-3-azabicyclo[3.1.0]hexan-3-yl)methanone], the half-inhibitory concentration (IC50) was below 500 nM.
Under `Cc1nc(C#CC23CC2CN(c2cncc(F)c2)C3)cs1` (centres unmarked) [Example Compound 48, 4-((3-(S-fluoropyridin-3-yl)-3-azabicyclo[3.1.0]hexan-1-yl)ethynyl)-2-methylthiazole] stands below 500 nM; under `N#Cc1cccc(N2CC3CC3(C#Cc3ncccn3)C2)c1` (centres unmarked) [Example Compound 62, 3-(1-(pyrimidin-2-ylethynyl)-3-azabicyclo[3.1.0]hexan-3-yl)benzonitrile], below 500 nM; under `N#Cc1cccc(N2CC3CC3(C#Cc3ccccn3)C2)n1` (centres unmarked) [Example Compound 38, 6-(1-(pyridin-2-ylethynyl)-3-azabicyclo[3.1.0]hexan-3-yl)picolinonitrile], below 500 nM.
Under `Fc1ccccc1N1CC2CC2(C#Cc2ccccn2)C1` (centres unmarked) [Example Compound 16, 3-(2-fluorophenyl)-1-(pyridin-2-ylethynyl)-3-azabicyclo[3.1.0]hexane] stands below 500 nM.
Under `Fc1cc(F)cc(N2CC3CC3(C#Cc3ncccn3)C2)c1` (centres unmarked) [Example Compound 45, 3-(3,5-difluorophenyl)-1-(pyrimidin-2-ylethynyl)-3-azabicyclo[3.1.0]hexane] stands below 500 nM.
On to `O=C(c1cccc(Cl)c1)N1CC2CC2(C#Cc2ccccn2)C1` (centres unmarked) [Example Compound 26, (3-chlorophenyl)(1-(pyridin-2-ylethynyl)-3-azabicyclo[3.1.0]hexan-3-yl)methanone], for which the half-inhibitory concentration (IC50) is below 500 nM.
Turning to `Fc1cc(Cl)ccc1N1CC2CC2(C#Cc2ccccn2)C1` (centres unmarked) [Example Compound 21, 3-(4-chloro-2-fluorophenyl)-1-(pyridin-2-ylethynyl)-3-azabicyclo[3.1.0]hexane], the IC50 fell in the range of 500 to 1000 nM.
Under `Fc1ccc(N2CC3CC3(C#Cc3ccccn3)C2)nc1` (centres unmarked) [Example Compound 6, 3-(5-fluoropyridin-2-yl)-1-(pyridin-2-ylethynyl)-3-azabicyclo[3.1.0]hexane] stands below 500 nM; under `Fc1ccc(N2CC3CC3(C#Cc3ccccn3)C2)cc1` (centres unmarked) [Example Compound 2, 3-(4-fluorophenyl)-1-(pyridin-2-ylethynyl)-3-azabicyclo[3.1.0]hexane], below 500 nM.
Under `Fc1cccc(N2CC3CC3(C#Cc3ncccn3)C2)c1` (centres unmarked) [Example Compound 46, 3-(3-fluorophenyl)-1-(pyrimidin-2-ylethynyl)-3-azabicyclo[3.1.0]hexane] stands below 500 nM; under `Cc1cccc(C#CC23CC2CN(c2cncc(F)c2)C3)n1` (centres unmarked) [Example Compound 43, 3-(5-fluoropyridin-3-yl)-1-((6-methylpyridin-2-yl)ethynyl)-3-azabicyclo[3.1.0]hexane], below 500 nM.
Take `Clc1ccc(N2CC3CC3(C#Cc3ccccn3)C2)cc1` (centres unmarked) [Example Compound 19, 3-(4-chlorophenyl)-1-(pyridin-2-ylethynyl)-3-azabicyclo[3.1.0]hexane]: the half-maximal inhibitory concentration (IC50) was in the range of 500 to 1000 nM.
As for `Cc1cccc(C#CC23CC2CN(c2cc(F)cc(C#N)c2)C3)n1` (centres unmarked) [Example Compound 13, 3-fluoro-5-(1-((6-methylpyridin-2-yl)ethynyl)-3-azabicyclo[3.1.0]hexan-3-yl) benzonitrile], the figure is below 500 nM.
In the case of `O=C(c1cccc(Cl)c1)N1CC2CC2(C#Cc2ncccn2)C1` (centres unmarked) [Example Compound 61, (3-chlorophenyl)-(1-(pyrimidin-2-ylethynyl)-3-azabicyclo[3.1.0]hexan-3-yl)methanone], the IC50 was in the range of 500 to 1000 nM.
Under `Fc1cc(N2CC3CC3(C#Cc3ccccn3)C2)ccc1Cl` (centres unmarked) [Example Compound 22, 3-(4-chloro-3-fluorophenyl)-1-(pyridin-2-ylethynyl)-3-azabicyclo[3.1.0]hexane] stands 500 to 1000 nM; under `O=S(=O)(c1cccc(Cl)c1)N1CC2CC2(C#Cc2ccccn2)C1` (centres unmarked) [Example Compound 34, 3-((3-chlorophenyl)sulfonyl)-1-(pyridin-2-ylethynyl)-3-azabicyclo[3.1.0]hexane], below 500 nM; under `O=S(=O)(c1ccccc1)N1CC2CC2(C#Cc2ccccn2)C1` (centres unmarked) [Example Compound 5, 3-(phenylsulfonyl)-1-(pyridin-2-ylethynyl)-3-azabicyclo[3.1.0]hexane], below 500 nM.
As to `O=C(c1ccc(Cl)cc1)N1CC2CC2(C#Cc2ccccn2)C1` (centres unmarked) [Example Compound 33, (4-chlorophenyl)(1-(pyridin-2-ylethynyl)-3-azabicyclo[3.1.0]hexan-3-yl)methanone], the IC50 is below 500 nM.
`O=S(=O)(c1ccccc1F)N1CC2CC2(C#Cc2ccccn2)C1` (centres unmarked) [Example Compound 42, 3-((2-fluorophenyl)sulfonyl)-1-(pyridin-2-ylethynyl)-3-azabicyclo[3.1.0]hexane]: the IC50 is below 500 nM.
As for `O=C(N1CCCC1)N1CC2CC2(C#Cc2ccccn2)C1` (centres unmarked) [Example Compound 59, (1-(pyridin-2-ylethynyl)-3-azabicyclo[3.1.0]hexan-3-yl)(pyrrolidin-1-yl)methanone], the figure is below 500 nM; as for `COC(=O)N1CC2CC2(C#Cc2ccccn2)C1` (centres unmarked) [Example Compound 53, methyl 1-(pyridin-2-ylethynyl)-3-azabicyclo[3.1.0]hexane-3-carboxylate], below 500 nM.
Regarding `Fc1cc(Cl)cc(N2CC3CC3(C#Cc3ccccn3)C2)c1` (centres unmarked) [Example Compound 20, 3-(3-chloro-5-fluorophenyl)-1-(pyridin-2-ylethynyl)-3-azabicyclo[3.1.0]hexane], the IC50 is below 500 nM.
With `FC(F)(F)Oc1ccc(N2CC3CC3(C#Cc3ccccn3)C2)cc1` (centres unmarked) [Example Compound 3, 1-(pyridin-2-ylethynyl)-3-(4-(trifluoromethoxy)phenyl)-3-azabicyclo[3.1.0]hexane], the IC50 lay within 1000 to 5000 nM.
On to `O=C(Cc1ccccc1)N1CC2CC2(C#Cc2ccccn2)C1` (centres unmarked) [Example Compound 29, 2-phenyl-1-(1-(pyridin-2-ylethynyl)-3-azabicyclo[3.1.0]hexan-3-yl)ethanone], for which the half-inhibitory concentration (IC50) is below 500 nM.
With `CCCNC(=O)N1C[C@H]2C[C@@]2(C#Cc2ccccn2)C1` [Example Compound 58, (1R,5S)—N-propyl-1-(pyridin-2-ylethynyl)-3-azabicyclo[3.1.0]hexane-3-carboxamide], the IC50 was below 500 nM.
Under `O=C(Nc1ccccc1)N1CC2CC2(C#Cc2ccccn2)C1` (centres unmarked) [Example Compound 57, N-phenyl-1-(pyridin-2-ylethynyl)-3-azabicyclo[3.1.0]hexane-3-carboxamide] stands 500 to 1000 nM; under `N#Cc1cc(F)cc(N2CC3CC3(C#Cc3ncccn3)C2)c1` (centres unmarked) [Example Compound 8, 3-fluoro-5-(1-(pyrimidin-2-ylethynyl)-3-azabicyclo[3.1.0]hexan-3-yl) benzonitrile], below 500 nM; under `O=C(c1cccc(F)c1)N1CC2CC2(C#Cc2ccccn2)C1` (centres unmarked) [Example Compound 41, (3-fluorophenyl)-(1-(pyridin-2-ylethynyl)-3-azabicyclo[3.1.0]hexan-3-yl)methanone], below 500 nM.
`O=C(c1cc(Cl)ccn1)N1CC2CC2(C#Cc2ccccn2)C1` (centres unmarked) [Example Compound 55, (4-chloropyridin-2-yl)-(1-(pyridin-2-ylethynyl)-3-azabicyclo[3.1.0]hexan-3-yl)methanone]: the concentration for half-maximal inhibition (IC50) is below 500 nM.
Under `C(#CC12CC1CN(c1ccc3[nH]ccc3n1)C2)c1ccccn1` (centres unmarked) [Example Compound 24, 5-(1-(pyridin-2-ylethynyl)-3-azabicyclo[3.1.0]hexan-3-yl)-1H-pyrrolo[3,2-b]pyridine] stands 1000 to 5000 nM; under `O=S(=O)(c1ccccc1Cl)N1CC2CC2(C#Cc2ccccn2)C1` (centres unmarked) [Example Compound 36, 3-((2-chlorophenyl)sulfonyl)-1-(pyridin-2-ylethynyl)-3-azabicyclo[3.1.0]hexane], below 500 nM.
On to `O=C(NCC(F)(F)F)N1CC2CC2(C#Cc2ccccn2)C1` (centres unmarked) [Example Compound 60, 1-(pyridin-2-yl-ethynyl)-N-(2,2,2-trifluoroethyl)-3-azabicyclo[3.1.0]hexane-3-carboxamide], for which the IC50 was below 500 nM.
As to `O=C(c1cncc(Cl)c1)N1C[C@H]2C[C@@]2(C#Cc2ccccn2)C1` [Example Compound 54, (5-chloropyridin-3-yl)((1R,5S)-1-(pyridin-2-ylethynyl)-3-azabicyclo[3.1.0]hexan-3-yl)methanone], the IC50 is below 500 nM.
As for `CCCCC(=O)N1CC2CC2(C#Cc2csc(C)n2)C1` (centres unmarked) [Example Compound 67, 1-(1-((2-mehylthyiazol-4-yl)ethynyl)-3-azabicyclo[3.1.0]hexan-3-yl)pentan-1-one], the figure is below 500 nM; as for `Cc1ccc(S(=O)(=O)N2CC3CC3(C#Cc3ccccn3)C2)cc1` (centres unmarked) [Example Compound 37, 1-(pyridin-2-ylethynyl)-3-tosyl-3-azabicyclo[3.1.0]hexane], below 500 nM.
As for `Cc1cccnc1C#CC12CC1CN(c1cc(F)cc(C#N)c1)C2` (centres unmarked) [Example Compound 9], the figure is 1000 to 5000 nM.

In general, IC50 refers to the midpoint of a concentration-inhibition curve.
